Experimental data from US20220054644A1, “NOVEL DRUG DELIVERY CONJUGATED MOIETY FOR ORAL ADMINISTRATION OF DRUG UNSUITABLE FOR ORAL ADMINISTRATION AND PREPARATION METHOD THEREOF” (ST PHARM CO., LTD, priority 2015, published 2022).

Experiments:
[1] = system: FXa (Bovine Factor Xa); test: Measurement of FXa: heparin activity with COATEST HEPARIN FXa assay kit; type: biochemical; details: chromogenic substrate S-2222, absorbance at 405 nm
Description: The term “heparin activity” refers to the anticoagulant ability of heparin.
Stock solutions were prepared from 10 IU/ml of standard solution by accurately preparing test substances and then diluted to 0.1 IU/ml with buffer working solution (Tris 0.5 mol/L, pH=8.4, 10 ml, Chromogenix) to prepare standard solutions for each dose as shown in the following table 2 and used for the analysis.
Each 200 μL of pretreated samples was placed in a cuvette and preheated at 37° C. for 3 to 4 minutes. Each 100 μl of FXa (Bovine Factor Xa 71 nkat., Chromogenix) was added thereto and left at 37° C. for about 30 seconds. Then, each 200 μl of S-2222 (Chromogenic substrate (Bz-Ile-Glu-(g-OR)-Gly-Arg-pNA.HCl), Chromogenix) was added thereto and left at 37° C. for 3 minutes. Subsequently, each 300 μl of 20% acetic acid was added thereto, and then the absorbance was measured at 405 nm. At this time, the measurement should be performed within 4 hours.
A linear regression equation was obtained using calibration curve of the standard solutions and converted to obtain the titers of the samples.

[2] = system: deep vein thrombosis (DVT) disease models; test: Measurement of DVT activities (rat deep vein thrombosis model); type: in vivo; details: rats, LMWH (enoxaparin) injected subcutaneously
Description: Low molecular weight heparin (enoxaparin) was administered to one group by subcutaneous injection, and the formulated complex of Example 2 was administered orally to other groups. […] The distal end of the vein along about 3 cm was weakly tied off, and the remaining veins were strongly tied off. 60 minutes after the drug treatment, 1 mL/kg of human pooled plasma was administered intravenously to the ends of the tails at 37° C., and the veins were tied off after 15 seconds to prevent blood flow. The veins were isolated 120 minutes after the drug treatment and stored in a Petri dish with 3.8% sodium citrate. Then, thrombus was isolated, and the amount of […] generated was measured.

[3] = rat, in vivo, iv, 2 mg/kg
Description: The following experiment was performed to determine the pharmacokinetic (PK) behavior of heparin administered orally using the drug delivery conjugated moiety of the present invention.
Prior to drug administration, experimental animals (rats) were fasted for more than 4 hours to empty the stomach. Then, after the dorsal skin was fixed, forced oral administration was performed using a sonde and a syringe for oral administration, and the animals were fed again about 4 hours after the administration. […] Blood samples (450 μL) were collected in a tube containing sodium citrate (50 μL) and centrifuged at 4500×g for 20 minutes to isolate plasma, which was then stored in a deep freezer at −70° C. The concentration of the drug delivery conjugated moiety-heparin complex in the plasma was analyzed using the COATEST HEPARIN FXa assay (Chromogenix).

AUC (Area under the concentration-time curve from 0 to 8 h) [3]: 1.8 ± 0.1 IU · h/ml
CL (Clearance) [3]: 17 ± 0 mL/day/kg
Emax (Maximum effective concentration) [3]: 1.61 ± 0.02 IU/ml
Tmax (Time to reach maximum effective concentration) [3]: 12 ± 0 min
t1/2 (Half-life of drug) [3]: 72 ± 6 min
Substance: enoxaparin [LMWH]
Anti-factor Xa activity [1]: 101 IU/mg
thrombus generated, compared with complex of Example 2 [2]: almost the same results
